The source of these data is ChEMBL document CHEMBL1268940, “Synthesis and anticancer evaluation of thiazolyl-chalcones” (Bioorg Med Chem Lett, 2010).

The subject of one assay is PC-3. Nature of the assay: Cytotoxicity against human PC3 cells by MTT assay. The class given is functional, cell-based.
For a further assay, the system named is Bel-7402. Nature of the assay: Cytotoxicity against human Bel7402 cells by MTT assay. Type of assay: functional, cell-based.
The next assay relates to BGC-823. The assay can be described thus: Cytotoxicity against human BGC823 cells by MTT assay. The class given is functional, cell-based.
A further assay relates to NCI-H460. The assay can be described thus: Cytotoxicity against human NCI-H460 cells by MTT assay. Type of assay: functional, cell-based.
Assay [1] deals with CCRF S-180. Nature of the assay: Anticancer activity against mouse S180 cells xenografted in ICR mouse assessed as tumor weight inhibition at 100 mg/kg, ip relative to control. The note with it: CCRF S-180, ip, read-out: INH.
Assay [2] concerns CCRF S-180. Nature of the assay: Anticancer activity against mouse S180 cells xenografted in ICR mouse assessed as tumor weight inhibition at 25 mg/kg, ip relative to control. Type of assay: functional. The conditions noted are these: CCRF S-180, ip, route intraperitoneal.
Assay [3] relates to CCRF S-180. Nature of the assay: Anticancer activity against mouse S180 cells xenografted in ICR mouse assessed as tumor weight inhibition at 50 mg/kg, ip relative to control. The class given is functional. The conditions noted are these: CCRF S-180, ip, route intraperitoneal.

Turning to `COc1cccc(/C=C/C(=O)c2sc(Nc3ccc(Cl)cc3)nc2C)c1`, the IC50 in the assay with PC-3, in the assay on Bel-7402, in the assay with BGC-823 and with NCI-H460 was over 25 µM in each case.

As to `Cc1nc(Nc2cccc(Cl)c2)sc1C(=O)/C=C/c1ccc(Cl)cc1`, the IC50 in the assay on PC-3, in the assay with Bel-7402, with BGC-823 and in the assay with NCI-H460 was over 25 µM each time.

Take `Cc1cccc(Nc2nc(C)c(C(=O)/C=C/c3ccccc3Cl)s2)c1`: the IC50 was 22.2 µM with PC-3, over 25 µM in the assay on Bel-7402, 24.2 µM in the assay on BGC-823 and over 25 µM in the assay with NCI-H460.

`Cc1nc(Nc2ccccc2)sc1C(=O)/C=C/c1ccc(Cl)cc1`: the IC50 in the assay with PC-3, in the assay with Bel-7402, with BGC-823 and with NCI-H460 was over 25 µM throughout.

In the case of `COc1ccc(/C=C/C(=O)c2sc(Nc3ccc(Cl)cc3)nc2C)cc1`, the IC50 in the assay on PC-3, in the assay with Bel-7402, in the assay with BGC-823 and in the assay with NCI-H460 was over 25 µM in each case.

As to `COc1cccc(/C=C/C(=O)c2sc(Nc3cccc(C)c3)nc2C)c1`, the IC50 in the assay with PC-3, in the assay with Bel-7402, in the assay on BGC-823 and with NCI-H460 was over 25 µM throughout.

Regarding `COc1ccc(/C=C/C(=O)c2sc(Nc3ccc(Cl)c(Cl)c3)nc2C)cc1`, the IC50 in the assay with PC-3, with Bel-7402, with BGC-823 and with NCI-H460 was over 25 µM each time.

For `Cc1ccc(Nc2nc(C)c(C(=O)/C=C/c3ccc4c(c3)OCO4)s2)cc1`, the IC50 with PC-3, with Bel-7402, in the assay on BGC-823 and with NCI-H460 was over 25 µM in each case.

`Cc1ccccc1Nc1nc(C)c(C(=O)/C=C/c2ccc(Cl)cc2)s1`: the IC50 in the assay on PC-3, in the assay with Bel-7402, with BGC-823 and in the assay on NCI-H460 was over 25 µM throughout.

In the case of `Cc1cccc(Nc2nc(C)c(C(=O)/C=C/c3ccccc3)s2)c1`, the IC50 with PC-3 is 11.7 µM; in the assay on Bel-7402, over 25 µM; in the assay with BGC-823, 13.6 µM; with NCI-H460, 21.8 µM.

On to `Cc1nc(Nc2ccc(Cl)c(Cl)c2)sc1C(=O)/C=C/c1ccc(Cl)cc1`, for which the IC50 in the assay with PC-3 is over 25 µM; in the assay on Bel-7402, over 25 µM; in the assay with BGC-823, 22.7 µM; in the assay on NCI-H460, over 25 µM.

With `COc1cc(/C=C/C(=O)c2sc(Nc3cccc(C)c3)nc2C)cc(OC)c1OC`, the IC50 in the assay on PC-3 is over 25 µM; with Bel-7402, over 25 µM; in the assay on BGC-823, 17.2 µM; with NCI-H460, 19.8 µM.

For `COc1cccc(/C=C/C(=O)c2sc(Nc3ccc(Cl)c(Cl)c3)nc2C)c1`, the IC50 in the assay on PC-3 is 10.1 µM; in the assay with Bel-7402 it was over 25 µM; with BGC-823, 8.35 µM; with NCI-H460, 20.1 µM.

Regarding `COc1cccc(/C=C/C(=O)c2sc(Nc3ccc(C)cc3)nc2C)c1`, the IC50 in the assay on PC-3, in the assay on Bel-7402, with BGC-823 and in the assay with NCI-H460 was over 25 µM in each case.

As for `Cc1ccccc1Nc1nc(C)c(C(=O)/C=C/c2ccccc2)s1`, the IC50 in the assay on PC-3, with Bel-7402, in the assay with BGC-823 and with NCI-H460 was over 25 µM each time.

For the compound `Cc1cccc(Nc2nc(C)c(C(=O)/C=C/c3ccc(Cl)cc3)s2)c1`, the IC50 with PC-3, with Bel-7402, in the assay on BGC-823 and with NCI-H460 was over 25 µM in each case.

Turning to `O=P1(N(CCCl)CCCl)NCCCO1` (centres undefined) [CYCLOPHOSPHAMIDE ANHYDROUS], in the assay on CCRF S-180 [1], the inhibition in vivo at 100 mg/kg worked out at 91.7%.

As to `Cc1nc(Nc2ccccc2)sc1C(=O)/C=C/c1ccccc1`, the half-inhibitory concentration (IC50) with PC-3 is over 25 µM; with Bel-7402, over 25 µM; with BGC-823, 19.5 µM; in the assay on NCI-H460, over 25 µM.

Regarding `Cc1ccc(Nc2nc(C)c(C(=O)/C=C/c3ccccc3)s2)cc1`, the IC50 with PC-3, in the assay with Bel-7402, with BGC-823 and in the assay on NCI-H460 was over 25 µM each time.

For the compound `COc1cc(/C=C/C(=O)c2sc(Nc3ccc(C)cc3)nc2C)cc(OC)c1OC`, the IC50 in the assay on PC-3, in the assay with Bel-7402, in the assay with BGC-823 and with NCI-H460 was over 25 µM each time.

`COc1cccc(/C=C/C(=O)c2sc(Nc3ccccc3)nc2C)c1`: the IC50 was over 25 µM with PC-3, over 25 µM in the assay with Bel-7402, 14.3 µM with BGC-823 and over 25 µM in the assay with NCI-H460.

Turning to `COc1cc(/C=C/C(=O)c2sc(Nc3ccc(Cl)cc3)nc2C)cc(OC)c1OC`, the IC50 in the assay on PC-3 was over 25 µM; in the assay on Bel-7402, over 25 µM; in the assay with BGC-823 it was over 25 µM; in the assay on NCI-H460, 22 µM.

On to `Cc1ccccc1Nc1nc(C)c(C(=O)/C=C/c2ccccc2Cl)s1`, for which the IC50 with PC-3, with Bel-7402, in the assay with BGC-823 and in the assay with NCI-H460 was over 25 µM throughout.

For `Cc1nc(Nc2ccc(Cl)c(Cl)c2)sc1C(=O)/C=C/c1ccc2c(c1)OCO2`, the IC50 with PC-3, with Bel-7402, with BGC-823 and with NCI-H460 was over 25 µM each time.

On to `COc1cccc(/C=C/C(=O)c2sc(Nc3cccc(Cl)c3)nc2C)c1`, for which the IC50 in the assay with PC-3, with Bel-7402 and with NCI-H460 was over 25 µM throughout.

For the compound `Cc1nc(Nc2ccccc2)sc1C(=O)/C=C/c1ccccc1Cl`, the IC50 was over 25 µM in the assay on PC-3, over 25 µM in the assay with Bel-7402, 22.8 µM in the assay with BGC-823 and over 25 µM in the assay with NCI-H460.

Take `COc1cc(/C=C/C(=O)c2sc(Nc3cccc(Cl)c3)nc2C)cc(OC)c1OC`: the IC50 with PC-3 was over 25 µM; with Bel-7402, 14 µM; in the assay with BGC-823, 11.6 µM; in the assay with NCI-H460, over 25 µM.

Turning to `COc1cc(/C=C/C(=O)c2sc(Nc3ccccc3)nc2C)cc(OC)c1OC`, the half-maximal inhibitory concentration (IC50) in the assay on PC-3, with Bel-7402, in the assay with BGC-823 and in the assay on NCI-H460 was over 25 µM each time.

In the case of `Cc1nc(Nc2ccc(Cl)cc2)sc1C(=O)/C=C/c1ccccc1`, the IC50 with PC-3 is 24.6 µM; in the assay with Bel-7402 it was over 25 µM; in the assay on BGC-823 it was over 25 µM; in the assay on NCI-H460, over 25 µM.

Consider `Cc1nc(Nc2cccc(Cl)c2)sc1C(=O)/C=C/c1ccccc1`, for which the IC50 with PC-3, in the assay with Bel-7402, with BGC-823 and with NCI-H460 was over 25 µM throughout.

For `Cc1ccc(Nc2nc(C)c(C(=O)/C=C/c3ccc(Cl)cc3)s2)cc1`, the IC50 with PC-3, in the assay with Bel-7402, in the assay on BGC-823 and in the assay with NCI-H460 was over 25 µM throughout.

Turning to `COc1cccc(/C=C/C(=O)c2sc(Nc3ccccc3C)nc2C)c1`, the IC50 with PC-3, in the assay on Bel-7402, in the assay with BGC-823 and in the assay with NCI-H460 was over 25 µM each time.

Turning to `COc1cc(/C=C/C(=O)c2sc(Nc3ccc(F)c(Cl)c3)nc2C)cc(OC)c1OC`, the inhibition in vivo at 25 mg/kg in the assay with CCRF S-180 [2] was 23%. In addition, the inhibition in vivo at 50 mg/kg with CCRF S-180 [3] stood at 22.6%. Moreover, the values for the IC50 in the assay with BGC-823 and in the assay with NCI-H460 were 9.7 µM and 6.31 µM, respectively.

Turning to `Cc1ccc(Nc2nc(C)c(C(=O)/C=C/c3ccccc3Cl)s2)cc1`, the concentration for half-maximal inhibition (IC50) in the assay on PC-3, in the assay with Bel-7402, in the assay on BGC-823 and in the assay with NCI-H460 was over 25 µM in each case.

Turning to `COc1cc(/C=C/C(=O)c2sc(Nc3ccc(Cl)c(Cl)c3)nc2C)cc(OC)c1OC`, the IC50 in the assay on PC-3 was 19.3 µM; with Bel-7402, over 25 µM; in the assay on BGC-823, over 25 µM; in the assay with NCI-H460, over 25 µM. The inhibition in vivo at 50 mg/kg in the assay with CCRF S-180 [3] is 25.1%.

In the case of `Cc1nc(Nc2ccc(Cl)c(Cl)c2)sc1C(=O)/C=C/c1ccccc1`, the IC50 with PC-3 stood at 7.99 µM; in the assay on Bel-7402, 21.5 µM; with BGC-823, 10.6 µM; in the assay with NCI-H460, 22.7 µM.

For `COc1cc(/C=C/C(=O)c2sc(Nc3ccccc3C)nc2C)cc(OC)c1OC`, the IC50 was over 25 µM in the assay with PC-3, 10.3 µM in the assay with Bel-7402, 5.4 µM in the assay with BGC-823 and 6.32 µM in the assay with NCI-H460.

For the compound `Cc1nc(Nc2ccc(Cl)cc2)sc1C(=O)/C=C/c1ccc(Cl)cc1`, the IC50 with PC-3, in the assay on Bel-7402, in the assay on BGC-823 and in the assay on NCI-H460 was over 25 µM throughout.
